Data: US12263248B2, “Compounds and compositions for intracellular delivery of therapeutic agents” (ModernaTX, Inc., priority 2018, dated 2025)
Marks after values point to notes of the source that are not given here.

Experiments:
luciferase mRNA = assay: Luciferase expression after subcutaneous administration to mice; assay type: in vivo, female CD-1 mice; conditions: for Lipid/MC3 AUC ratio: luciferase; for AUC (luciferase expression): whole body BLI; for Novel lipid/MC3 ratio, s.c. Luc 6 hr.: relative to MC3, Table 3G
Summary of the method: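 Female CD-1 mice given luciferase mRNA in lipid nanoparticle formulations subcutaneously at 0.5 mpk. Expression read by whole-body bioluminescence imaging at 3, 6 and 24 h, with ex vivo liver, spleen and injection-site luminescence at 24 h.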

[1] = Apparent (surface) pKa of the LNP formulation (TNS assay); assay type: physicochemical
Summary of the method: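 LNP (0.04 mg/mL mRNA) mixed with TNS reagent in 21 buffers spanning about pH 3-12, in triplicate; fluorescence plotted against pH as sigmoidal curve. Apparent pKa taken as […] curve inflection point; validated in 1× PBS and 20 mM Tris w/8% sucrose.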

hEPO mRNA [2] = assay: hEPO expression after intravenous administration to rats; assay type: in vivo, rat; conditions: for hEPO expression / hEPO expression 0.25 h / hEPO expression 0.5 h / hEPO expression 1 h / hEPO expression 2 h / hEPO expression 4 h / hEPO expression 8 h / hEPO expression 24 h / hEPO expression 48 h: rat; for Lipid/MC3 hEPO conc. ratio 0.2 mpk / Lipid/MC3 hEPO conc. ratio 2 mpk: rats; for Lipid/MC3 hEPO expression: 6 hours after administration
Summary of the method: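 Rats dosed intravenously once with nanoparticle composition, 0.2 or 2.0 mpk, formulated by the standard MC3 method. Tail-vein blood sampled at 6 h or at time points from 0.25 to 48 h. hEPO measured by ELISA.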

hEPO mRNA [3] = assay: hEPO expression after intramuscular administration to mice; assay type: in vivo; conditions: for Fold increase in hEPO concentration relative to MC3: mice, 0.01 mpk, 6 hr time point; for Novel lipid/MC3 ratio, 6 hr. timepoint, i.m. hEPO: relative to MC3, Table 3G
luciferase (Luc) mRNA = assay: Luc expression (total flux) after intramuscular administration; assay type: in vivo, mice; conditions: for Total flux, 0.001 mpk Dose / Total flux, 0.01 mpk Dose / Total flux (p/s) 0.01 mpk Dose: 6 hours after intramuscular administration; for Total flux, 0.001 mpk Dose / Total flux, 0.01 mpk Dose: Luc mRNA and H10 mRNA; for Novel lipid/MC3 expression ratio, 6 hr. time point, i.m. Luc: relative to MC3 formulation; for Total flux (p/s) 0.01 mpk Dose: Table 5B
Summary of the method: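 Mice given a single intramuscular dose of lipid nanoparticle formulations carrying modified Luc mRNA, alone or with H10 mRNA, at 0.001 or 0.01 mpk total. Luciferase expression recorded as total flux.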

[4] = lipid nanoparticle, ±SD within one assay run (Table 37)

Structure (SMILES) | Novel lipid/MC3 expression ratio, s.c. Luc 0.5 mpk (AUC) (luciferase mRNA; 0.5 mpk, relative to MC3) | Lipid/MC3 AUC ratio (luciferase mRNA; 0.5 mpk) | AUC (luciferase expression) (luciferase mRNA; 0.5 mpk) | Novel lipid/MC3 ratio, s.c. Luc 6 hr. (luciferase mRNA) | pKa ([1]; Table 1A) | hEPO expression (hEPO mRNA [2]; 6 h, 2 mpk, i.v.) [pg/mL] | Lipid/MC3 hEPO conc. ratio 0.2 mpk (hEPO mRNA [2]; intravenous, 0.2 mpk, 6 hours) | Lipid/MC3 hEPO conc. ratio 2 mpk (hEPO mRNA [2]; intravenous, 2 mpk, 6 hours) | Fold increase in hEPO concentration relative to MC3 (hEPO mRNA [3]) | Novel lipid/MC3 ratio, 6 hr. timepoint, i.m. hEPO (hEPO mRNA [3]) | Total flux, 0.001 mpk Dose (luciferase (Luc) mRNA) [p/s] | Total flux, 0.01 mpk Dose (luciferase (Luc) mRNA; 0.01 mpk) [p/s] | Novel lipid/MC3 expression ratio, 6 hr. time point, i.m. Luc (luciferase (Luc) mRNA; intramuscular) | pKa [1, 4] | Lipid/MC3 hEPO expression (hEPO mRNA [2]; 2 mpk dose to rat) | hEPO expression 0.25 h (hEPO mRNA [2]; intravenous, 0.2 mpk) [pg/mL] | hEPO expression 0.5 h (hEPO mRNA [2]; intravenous, 0.2 mpk) [pg/mL] | hEPO expression 1 h (hEPO mRNA [2]; intravenous, 0.2 mpk) [pg/mL] | hEPO expression 2 h (hEPO mRNA [2]; intravenous, 0.2 mpk) [pg/mL] | hEPO expression 4 h (hEPO mRNA [2]; intravenous, 0.2 mpk) [pg/mL] | other results
CCCCCCCCCOC(=O)CCCCCCCN(CCO)CCCCCCCOC(=O)C(CCCCCCCC)CCCCCCCC [Compound 30, 7-((2-Hydroxyethyl)(8-(nonyloxy)-8-oxooctyl)amino)heptyl 2-octyldecanoate] | (AUC: 6.38) | 6.38 | 1.0932E+11 (p/s) * h | 6.53 | 6.75 | 1.63e+07 | 1.87 | 1.14 | 9.2 | 9.2 | 2.47E+06 | 3.77E+07 | 4.69 | – | – | – | – | – | – | – | factor by which MC3 is outperformed (luciferase mRNA; female CD-1 mice, 0.5 mpk): 6.5; Apparent pKa ([1]; Table 3G): 6.75
CCCCC/C=C\C/C=C\CCCCCCCCC(CCCCCCCC/C=C\C/C=C\CCCCC)OC(=O)CCCN(C)C [MC3, DLin-MC3-DMA, reference compound] | – | 1 | 1.7127E+10 (p/s) * h | – | – | 1.33e+07 | 1 | 1 | 1 | – | 2.76E+06 | 3.68E+07 | – | 6.30 ± 0.03 | 1 | 0 | 42457 | 93720 | 524093 | 601307 | Apparent pKa ([1]; Table 1B, formulated with hEPO mRNA): 6.35; Lipid/MC3 hEPO expression (hEPO mRNA [2]; 0.2 mpk dose to rat): 1; AUC (hEPO) (hEPO mRNA [2]; Table 19B): 3.46e+07 pg·h/mL; [hEPO] (hEPO mRNA [2]; Table 19B, species, dose and time not given): 14800 pg/mL; hEPO expression (hEPO mRNA [2]; intravenous, 0.2 mpk, 6 hours): 7.68e+06 pg/mL; hEPO expression 8 h (hEPO mRNA [2]; intravenous, 0.2 mpk): 1536833 pg/mL; hEPO expression 24 h (hEPO mRNA [2]; intravenous, 0.2 mpk): 703619 pg/mL; hEPO expression 48 h (hEPO mRNA [2]; intravenous, 0.2 mpk): 64687 pg/mL; hEPO expression (hEPO mRNA [2]; intravenous, 2 mpk, 6 hours): 9.29e+06 pg/mL; AUC (p/s * h) (luciferase (Luc) mRNA; Table 3H, intramuscular, Luc): 5.88E+08 p/s * h; Lipid/MC3 AUC (luciferase (Luc) mRNA; Table 3H, intramuscular, Luc): 1; Total flux (p/s) 0.01 mpk Dose (luciferase (Luc) mRNA; 0.01 mpk): 3.23E+07 p/s
CCCCCCCCCOC(=O)CCCCCCCN(CCCCCCCC(=O)OC(CCCCCCCC)CCCCCCCC)CCCNC(C)=O [Compound 108, Heptadecan-9-yl 8-((3-acetamidopropyl)(8-(nonyloxy)-8-oxooctyl)amino)octanoate] | – | – | – | – | 7.17 | – | – | – | 3.7 | – | – | – | 14.2 | – | – | – | – | – | – | – | Novel lipid/MC3 expression ratio, 6 hr. time point, s.c. Luc 0.5 mpk (luciferase mRNA; 0.5 mpk, relative to MC3): 0.22; Luc expression upon intramuscular administration (luciferase (Luc) mRNA; 0.01 mpk, in words): highest expression; i.m. Lipid/MC3 0.01 mpk, Luc, 6 h (luciferase (Luc) mRNA; Table 3B, i.m., 0.01 mpk, 6 h): 14.2; Total flux (p/s) 0.01 mpk Dose (luciferase (Luc) mRNA; 0.01 mpk): 4.60E+08 p/s; flux measured at 6 h relative to the MC3 formulation (luciferase (Luc) mRNA; intramuscular administration (i.m.), in words): fourteen
CCCCCCCCCOC(=O)CCCCCCCN(CCCCCCCC(=O)OC(CCCCCCCC)CCCCCCCC)CCCNC(=O)NC [Compound 112, Heptadecan-9-yl 8-((3-(3-methylureido)propyl)(8-(nonyloxy)-8-oxooctyl)amino)octanoate] | (AUC: 1.19) | 1.19 | 2.0339E+10 (p/s) * h | 1.33 | 7.78 | – | – | – | 1.6 | 1.6 | – | – | 2.93 | – | – | – | – | – | – | – | Apparent pKa ([1]; Table 3G): 7.78; Total flux (p/s) 0.01 mpk Dose (luciferase (Luc) mRNA; 0.01 mpk): 9.47E+07 p/s
CCCCCCCCCOC(=O)CCCCCCCN(CCO)CCCCCCCC(=O)OC(CCCCCCCC)CCCCCCCC [Compound 18, Heptadecan-9-yl 8-((2-hydroxyethyl)(8-(nonyloxy)-8-oxooctyl)amino)octanoate] | – | – | – | – | 6.56 | 9.96e+06 | – | 0.81 | 8.6 | – | – | 8.84E+07 | – | 6.56 ± 0.13 | 0.81 | 20227 | 20743 | 194353 | 238107 | 514807 | Novel lipid/MC3 expression ratio, 6 hr. time point, s.c. Luc 0.05 mpk (luciferase mRNA; 0.05 mpk, relative to MC3): 2.63; pKa ([1]; Table 6): 6.56; hEPO expression 8 h (hEPO mRNA [2]; intravenous, 0.2 mpk): 915320 pg/mL; hEPO expression 24 h (hEPO mRNA [2]; intravenous, 0.2 mpk): 412051 pg/mL; hEPO expression 48 h (hEPO mRNA [2]; intravenous, 0.2 mpk): 52361 pg/mL; Fold increase in Luc expression relative to MC3, Intramuscular (0.01 mpk dose) (luciferase (Luc) mRNA; intramuscular, 0.01 mpk): 2.01
CCCCCCCCCCCOC(=O)CCCCCN(CCO)CCCCCCCC(=O)OC(CCCCCCCC)CCCCCCCC [Compound 25, Heptadecan-9-yl 8-((2-hydroxyethyl)(6-oxo-6-(undecyloxy)hexyl)amino)octanoate] | (AUC: 1.7) | 1.70 | 2.9156E+10 (p/s) * h | 1.73 | 6.68 | 3.05e+07 | 2.41 | 2.13 | 7.1 | 7.1 | 3.53E+06 | 9.96E+07 | 1.46 | 6.68 ± 0.29 | 2.13 | 0 | 19553 | 434299 | 2042807 | 3176560 | Lipid/MC3 hEPO expression (hEPO mRNA [2]; 0.2 mpk dose to rat): 2.41; hEPO expression 8 h (hEPO mRNA [2]; intravenous, 0.2 mpk): 2631633 pg/mL; hEPO expression 24 h (hEPO mRNA [2]; intravenous, 0.2 mpk): 869374 pg/mL; hEPO expression 48 h (hEPO mRNA [2]; intravenous, 0.2 mpk): 103089 pg/mL
